After the bases stand the sugars from the 5' end (letter, count) and the backbone: PS all phosphorothioate, else s phosphorothioate and o phosphodiester by linkage. Methylation of C is not given here. e = 2'-O-(2-methoxyethyl) (MOE); k = constrained ethyl (cEt); d = 2'-deoxy (DNA); m = 2'-O-methyl

Among the data in the OligoGym collection are target mRNA inhibition values, retold here.

This data set has as its target HSD17B13. The note with it: ASO, HepaRG.

As to GGCAAACCTTGAATGA (sugars k3 d10 k3, PS), the target mRNA inhibition (1 µM) was determined as 61%.

On to GGCAAATTTGCTGGAA (sugars k3 d10 k3, PS), for which the target mRNA inhibition (1 µM) is 54%. For GGCACTAAAGGTTTCT (sugars k3 d10 k3, PS), the target mRNA inhibition was determined as 0% (0.02 µM); 26% (0.078 µM); 41% (0.313 µM); 62% (1 µM); 66% (1.25 µM); 75% (5 µM). For GGCAGTAAAGTGCTAA (sugars k3 d10 k3, PS), for the setting “1 µM”, the target mRNA inhibition amounted to 62%. With GGCAGTTGAAGTTGAT (sugars k3 d10 k3, PS), the target mRNA inhibition (1 µM) was found to be 46%. Take GGCATGGCTACAGATT (sugars k3 d10 k3, PS): the target mRNA inhibition (1 µM) amounted to 69%. Consider GGCTAAAATGGTCATC (sugars k3 d10 k3, PS), for which the target mRNA inhibition (1 µM) came out at 75%. The same measure, in the same setting: in the case of “GGCTACAGATTGGAAT (sugars k3 d1 m1 d8 k3, PS)” it was 40%. “GGCTACAGATTGGAAT (sugars k3 d9 k3 e1, PS)” came in with a target mRNA inhibition (1 µM) of 28%. As for GGCTAGGGAAATCTTT (sugars k3 d10 k3, PS), under “1 µM”, the target mRNA inhibition was determined as 57%.

Under “1 µM”, GGCTATAACTGGAAGG (sugars k3 d10 k3, PS) yielded a target mRNA inhibition of 52%. Turning to GGCTTATGAAGTTAGT (sugars k3 d10 k3, PS), the target mRNA inhibition (1 µM) came to 59%. On to “GGGAGGTAGCTTTTGT (sugars kkdddddddddkekek, PS)”, for which the target mRNA inhibition (1 µM) turned out to be 66%.

GGGTCCACTTTTGGTG (sugars k3 d10 k3, PS) gave a target mRNA inhibition (1 µM) of 13%. Still for that read-out and setting: the figure for GGTAAGGAATCCCTTC (sugars k3 d10 k3, PS) is 43%; for GGTAATTAATCTTGTT (sugars k3 d10 k3, PS) it is 58%. “GGTCACCTTTCATAAT (sugars k3 d1 m1 d8 k3, PS)” displayed a target mRNA inhibition (1 µM) of 48%. Still for that read-out and setting: in the case of “GGTCACCTTTCATAAT (sugars k3 d9 k3 e1, PS)” it was 49%; in that of GGTCAGTAGAGAGCAT (sugars k3 d10 k3, PS), 79%. Same read-out and setting: in the case of GGTCATTTAGAATACG (sugars k3 d10 k3, PS) it was 39%.

As to GGTGGACTTCAGAGTT (sugars k3 d10 k3, PS), the target mRNA inhibition (1 µM) was found to be 26%.

For the sequence GGTGGTAACGGTGATC (sugars k3 d10 k3, PS), the target mRNA inhibition (1 µM) came out at 31%. Consider GTAAATGATGGCAGGA (sugars k3 d10 k3, PS), for which the target mRNA inhibition (1 µM) was determined as 34%. For GTAAGCTGAGAGTTCT (sugars k3 d10 k3, PS), where the note is “1 µM”, the target mRNA inhibition came to 49%.

Sequence GTAAGGTAAAGTCTAA (sugars k3 d10 k3, PS) displayed a target mRNA inhibition (1 µM) of 37%. As for “GTAAGTATTCCATCTA (sugars k3 d1 m1 d8 k3, PS)”, the target mRNA inhibition (1 µM) worked out at 43%. As for “GTAAGTATTCCATCTA (sugars k3 d9 k3 e1, PS)”, for the setting “1 µM”, the target mRNA inhibition is 39%. As for “GTAAGTATTCCATCTA (sugars kkdddddddddkekek, PS)”, the target mRNA inhibition (1 µM) worked out at 53%. As for GTAATAAAGTCCAGAA (sugars k3 d10 k3, PS), the target mRNA inhibition (1 µM) was 66%. On to “GTAATAGCCAGTACAG (sugars k3 d9 k3 e1, PS)”, for which the target mRNA inhibition (1 µM) turned out to be 62%. “GTAATCACAAGTAAGG (sugars k3 d9 k3 e1, PS)” returned a target mRNA inhibition (1 µM) of 56%. On the same count and under the same terms, the figure for GTAATGAGAACAATCT (sugars k3 d10 k3, PS) is 48%; for GTAATTGCTATAGTAA (sugars k3 d10 k3, PS) it is 33%; for GTAATTGGCTCTTGAG (sugars k3 d10 k3, PS) it is 44%. Same read-out and setting: the figure for “GTAAUAGCCAGTACAG (sugars k3 d1 m1 d8 k3, PS)” is 62%; for GTACAAATTTATGCCA (sugars k3 d10 k3, PS) it is 45%; for GTAGAATTGTCTGTTA (sugars k3 d10 k3, PS) it is 51%.

“GTAGCTTTTGTCCACC (sugars kkdddddddddkekek, PS)” showed a target mRNA inhibition (1 µM) of 34%. In turn, GTAGGCTAAACCCTGG (sugars k3 d10 k3, PS) yielded a target mRNA inhibition (1 µM) of 62%. GTAGTGTAAGCTGAGA (sugars k3 d10 k3, PS) yielded a target mRNA inhibition (1 µM) of 81%. With GTATAGCTGCATTTCT (sugars k3 d10 k3, PS), the target mRNA inhibition (1 µM) worked out at 35%. As for GTATAGTATTCTTCAC (sugars k3 d10 k3, PS), the target mRNA inhibition is 15% (0.02 µM); 4% (0.078 µM); 29% (0.313 µM); 81% (1 µM); 61% (1.25 µM); 86% (5 µM).

Sequence “GTATAGTTATCTTCTC (sugars k3 d1 m1 d8 k3, PS)” displayed a target mRNA inhibition (1 µM) of 54%.

Regarding GTATAGTTATCTTCTC (sugars k3 d10 k3, PS), the target mRNA inhibition (1 µM) turned out to be 59%. “GTATCTTATAAGACTA (sugars k3 d9 k3 e1, PS)”: the target mRNA inhibition (1 µM) is 72%. The same measure, in the same setting: in the case of “GTATGTTTATGTAAGC (sugars k3 d9 k3 e1, PS)” it was 71%. In the case of GTATGTTTATGTAAGC (sugars k3 d10 k3, PS), the target mRNA inhibition was 0% (0.02 µM); 16% (0.078 µM); 33% (0.313 µM); 80% (1 µM); 77% (1.25 µM); 87% (5 µM). The sequence GTATTCCATCTATCAG (sugars k3 d10 k3, PS) returned a target mRNA inhibition (1 µM) of 52%.

Consider GTCATAAAAATCGCTG (sugars k3 d10 k3, PS), for which the target mRNA inhibition reads like this: (0.02 µM) 25%; (0.078 µM) 34%; (0.313 µM) 51%; (1 µM) 72%; (1.25 µM) 70%; (5 µM) 86%. GTCATTTAGAATACGC (sugars k3 d10 k3, PS) gave a target mRNA inhibition (1 µM) of 46%. In turn, GTCCACTTGAATTCTG (sugars k3 d10 k3, PS) gave a target mRNA inhibition (1 µM) of 18%. GTCCAGAATAGAGTTG (sugars k3 d10 k3, PS): the target mRNA inhibition (1 µM) amounted to 60%. “GTCCAGGTTGAGATAA (sugars k3 d1 m1 d8 k3, PS)” registered a target mRNA inhibition (1 µM) of 68%. The sequence “GTCCAGGTTGAGATAA (sugars k3 d9 k3 e1, PS)” returned a target mRNA inhibition (1 µM) of 52%.

Turning to “GTCCAGGTTGAGATAA (sugars kkdddddddddkekek, PS)”, under “1 µM”, the target mRNA inhibition was determined as 36%.

Sequence GTCCCAGCATTATTCA (sugars k3 d10 k3, PS) had a target mRNA inhibition (1 µM) of 21%. Still for that read-out and setting: the figure for GTCCTAGGGAGGAGGT (sugars k3 d10 k3, PS) is 36%; for GTCGGATTATTTTTTC (sugars k3 d10 k3, PS) it is 61%; for GTCTAAAGTGCTGGTT (sugars k3 d10 k3, PS) it is 39%. On the same count and under the same terms, the figure for GTCTACCACATACGCA (sugars k3 d10 k3, PS) is 66%. Regarding “GTCTACCTCTAAGTTA (sugars k3 d1 m1 d8 k3, PS)”, for the setting “1 µM”, the target mRNA inhibition turned out to be 15%. Take “GTCTTAAACCTTCCCT (sugars k3 d9 k3 e1, PS)”: the target mRNA inhibition (1 µM) is 50%. Consider “GTCTTGATGTAGTGGG (sugars k3 d9 k3 e1, PS)”, for which the target mRNA inhibition (1 µM) was found to be 70%. For the sequence GTCTTGATGTAGTGGG (sugars k3 d10 k3, PS), the target mRNA inhibition by setting is: (0.02 µM) 17%; (0.078 µM) 22%; (0.313 µM) 41%; (1 µM) 67%; (1.25 µM) 72%; (5 µM) 87%. Consider “GTCTTGATGTAGTGGG (sugars kkdddddddddkekek, PS)”, for which the target mRNA inhibition (1 µM) was determined as 18%. GTCTTGGTAATCTCTT (sugars k3 d10 k3, PS) returned a target mRNA inhibition (1 µM) of 37%.

Turning to GTGAAATCTTGTGTAA (sugars k3 d10 k3, PS), the target mRNA inhibition (1 µM) is 44%. Where the note is “1 µM”, GTGCAAGATGATGACA (sugars k3 d10 k3, PS) had a target mRNA inhibition of 19%. Regarding GTGCACTCATTCTGTG (sugars k3 d10 k3, PS), the target mRNA inhibition (1 µM) is 6%. Regarding “GTGCATCTTAAGATAC (sugars k3 d9 k3 e1, PS)”, the target mRNA inhibition (1 µM) was found to be 29%. The same measure, in the same setting: the figure for GTGCCAAACCAATGTT (sugars k3 d10 k3, PS) is 43%; for GTGCTGAGAAGATCGG (sugars k3 d10 k3, PS) it is 0%; for GTGGGATAAACTGTTC (sugars k3 d10 k3, PS) it is 52%. For the setting “1 µM”, GTGGTAACGGTGATCA (sugars k3 d10 k3, PS) displayed a target mRNA inhibition of 49%. “GTGTAAGCTGAGAGTT (sugars kkdddddddddkekek, PS)” returned a target mRNA inhibition (1 µM) of 57%.

For GTGTAGTCCTAGGGAG (sugars k3 d10 k3, PS), the target mRNA inhibition (1 µM) worked out at 67%. On the same count and under the same terms, the figure for GTGTAGTTTGGTGGGC (sugars k3 d10 k3, PS) is 33%. On to GTTAATGTAGTGTTTA (sugars k3 d10 k3, PS), for which the target mRNA inhibition is, setting by setting: (0.02 µM) 7%; (0.078 µM) 25%; (0.313 µM) 45%; (1 µM) 77%; (1.25 µM) 78%; (5 µM) 92%. “GTTAGAATAGTCTTCA (sugars k3 d9 k3 e1, PS)”: where the note is “1 µM”, the target mRNA inhibition worked out at 71%. For GTTAGAATAGTCTTCA (sugars k3 d10 k3, PS), the target mRNA inhibition (1 µM) is 46%. Sequence “GTTAGAATAGTCTTCA (sugars kkdddddddddkekek, PS)” gave a target mRNA inhibition (1 µM) of 45%. In the case of “GTTAGTATAGTTATCT (sugars kkdddddddddkekek, PS)”, the target mRNA inhibition (1 µM) turned out to be 51%. Regarding GTTATCAGAAACTTAT (sugars k3 d10 k3, PS), the target mRNA inhibition (1 µM) came to 31%.
